The text below walks through data of US20260078120A1, “SUBSTITUTED PYRIDOPYRIMIDINONES” (MIRATI THERAPEUTICS, INC., priority 2022, published 2026).

The test system of assay [1] is SKBR3 (PI3Kα wild type) cells. In words: CellTiter-Glo 2.0 luminescent cell viability assay, 72 hours, SKBR3 cells. Type of assay: cell-based. Particulars: Homo sapiens, SK-BR-3, 72 h, SKBR3 (PI3Kα wild type) cells, CellTiter-Glo, approximately 72 hours; read-out: SKBR3 (WT) Viability IC50. Summed up:
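Viability measured via CTG luminescence following roughly 72 hours of compound exposure at 37° C. Dosing used a 10 um starting concentration diluted 1:4 over 10 points; percent-of-vehicle data fitted with a variable-slope four-parameter model for IC50.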
(In general: In ATP-based viability assays light output follows the ATP content of the culture.)

For assay [2], the system named is T47D (PI3Kα H1047R mutant) cells. In words: CellTiter-Glo 2.0 luminescent cell viability assay, 72 hours, T47D cells. Type of assay: cell-based. Particulars: T47D (PI3Kα H1047R mutant) cells, CellTiter-Glo, approximately 72 hours, read-out: T47D (H1047R mutant) Viability IC50. Summed up: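 Viability was measured by CellTiter-Glo 2.0 luminescence after approximately 72 h of compound exposure at 37° C. Plating was 1000 cells per well the day before dosing, with ten 1:4 dilutions from a 10 µM top concentration. Values as percent of vehicle were fitted by variable-slope log(inhibitor) regression to give IC50.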

Usually IC50 stands for the concentration needed to halve the response being measured.

SMILES strings stand for the structures. Read-outs that look alike come from different tables or passages of the source.

In the case of `Cc1cc([C@@H](C)Nc2ccc(C(F)(F)F)nc2C(=O)O)c2nc(N3Cc4ccccc4C3)c(C)c(=O)n2c1` [Example 11-354, (R)-3-((1-(2-(isoindolin-2-yl)-3,7-dimethyl-4-oxo-4H-pyrido[1,2-a]pyrimidin-9-yl)ethyl)amino)-6-(trifluoromethyl)picolinic acid], the half-maximal inhibitory concentration (IC50) in assay [1] was more than 10 µM; in assay [2] (Homo sapiens, T47D, 72 h) it was 0.703 µM.
On the same counts, the results for `Cc1cc(C(C)Nc2ccc(C(F)(F)F)nc2C(=O)O)c2nc(N3Cc4ccccc4C3)c(C)c(=O)n2c1` (stereo not shown) [Example 11-355, 3-((1-(2-(isoindolin-2-yl)-3,7-dimethyl-4-oxo-4H-pyrido[1,2-a]pyrimidin-9-yl)ethyl)amino)-6-(trifluoromethyl) picolinic acid] are more than 10 µM and 0.88 µM.
On the same counts, the results for `Cc1cc(C(C)Nc2cccnc2C(=O)O)c2nc(N3CCCCC3)c(C)c(=O)n2c1` (stereo not shown) [Example 11-356, 3-((1-(3,7-dimethyl-4-oxo-2-(piperidin-1-yl)-4H-pyrido[1,2-a]pyrimidin-9-yl)ethyl)amino)picolinic acid] are 1.2 µM and 0.532 µM.
On the same counts, the results for `Cc1cc([C@H](C)Nc2ccc(Cl)nc2C(=O)O)c2nc(N3CCCCC3)c(C)c(=O)n2c1` [Example 11-357, (S)-6-chloro-3-((1-(3,7-dimethyl-4-oxo-2-(piperidin-1-yl)-4H-pyrido[1,2-a]pyrimidin-9-yl)ethyl)amino)picolinic acid] are more than 10 µM and 0.195 µM.
Regarding `Cc1cc([C@@H](C)Nc2ccc(Cl)nc2C(=O)O)c2nc(N3CCCCC3)c(C)c(=O)n2c1` [Example 11-358, (R)-6-chloro-3-((1-(3,7-dimethyl-4-oxo-2-(piperidin-1-yl)-4H-pyrido[1,2-a]pyrimidin-9-yl)ethyl)amino)picolinic acid], the IC50 in assay [1] was 6.21 µM; in assay [2] (Homo sapiens, T47D, 72 h), 1.27 µM.
The matching figures for `Cc1cc(C(C)Nc2ccc(Cl)nc2C(=O)O)c2nc(N3CCCCC3)c(C)c(=O)n2c1` (stereo not shown) [Example 11-359, 6-chloro-3-((1-(3,7-dimethyl-4-oxo-2-(piperidin-1-yl)-4H-pyrido[1,2-a]pyrimidin-9-yl)ethyl)amino)picolinic acid]: 8.11 µM and 0.362 µM.
For `Cc1cc([C@@H](C)Nc2ccc(Cl)nc2C(=O)O)c2nc(N3Cc4ccccc4C3)c(C)c(=O)n2c1` [Example 11-360, (R)-6-chloro-3-((1-(2-(isoindolin-2-yl)-3,7-dimethyl-4-oxo-4H-pyrido[1,2-a]pyrimidin-9-yl)ethyl)amino)picolinic acid], the IC50 was found to be 8.26 µM in assay [1] and 1.09 µM in assay [2].
As to `Cc1cc(C(C)Nc2ccc(Cl)nc2C(=O)O)c2nc(N3Cc4ccccc4C3)c(C)c(=O)n2c1` (stereo not shown) [Example 11-361], the IC50 in assay [1] is 8.79 µM; in assay [2] (Homo sapiens, T47D, 72 h) it was 0.277 µM.
The matching figures for `Cc1cc(C(C)Nc2ccccc2C(=O)O)c2nc(N3Cc4ccccc4C3=O)c(C)c(=O)n2c1` (stereo not shown) [Example 11-362, 2-((1-(3,7-dimethyl-4-oxo-2-(1-oxoisoindolin-2-yl)-4H-pyrido[1,2-a]pyrimidin-9-yl)ethyl)amino)benzoic acid]: more than 10 µM and 1.37 µM.
As to `Cc1cc(C(C)Nc2c(F)cccc2C(=O)O)c2nc(N3Cc4ccccc4C3)c(C)c(=O)n2c1` (stereo not shown) [Example 11-363, 3-fluoro-2-((1-(2-(isoindolin-2-yl)-3,7-dimethyl-4-oxo-4H-pyrido[1,2-a]pyrimidin-9-yl)ethyl)amino)benzoic acid], the IC50 in assay [1] is more than 10 µM; in assay [2] (Homo sapiens, T47D, 72 h), 2.89 µM.
On to `Cc1cc(C(C)Nc2cc(F)ccc2C(=O)O)c2nc(N3Cc4ccccc4C3)c(C)c(=O)n2c1` (stereo not shown) [Example 11-364, 4-fluoro-2-((1-(2-(isoindolin-2-yl)-3,7-dimethyl-4-oxo-4H-pyrido[1,2-a]pyrimidin-9-yl)ethyl)amino)benzoic acid], for which the IC50 in assay [1] is more than 10 µM; in assay [2] (Homo sapiens, T47D, 72 h), 5.42 µM.
On the same counts, the results for `Cc1cc([C@H](C)Nc2ccc(F)cc2C(=O)O)c2nc(N3Cc4ccccc4C3)c(C)c(=O)n2c1` [Example 11-365, (S)-5-fluoro-2-((1-(2-(isoindolin-2-yl)-3,7-dimethyl-4-oxo-4H-pyrido[1,2-a]pyrimidin-9-yl)ethyl)amino)benzoic acid] are more than 10 µM and 3.27 µM.
As for `Cc1cc([C@@H](C)Nc2ccc(F)cc2C(=O)O)c2nc(N3Cc4ccccc4C3)c(C)c(=O)n2c1` [Example 11-366, (R)-5-fluoro-2-((1-(2-(isoindolin-2-yl)-3,7-dimethyl-4-oxo-4H-pyrido[1,2-a]pyrimidin-9-yl)ethyl)amino)benzoic acid], the IC50 in assay [1] was found to be 9.62 µM; in assay [2] (Homo sapiens, T47D, 72 h), 0.144 µM.
The matching figures for `Cc1cc(C(C)Nc2ccc(F)cc2C(=O)O)c2nc(N3Cc4ccccc4C3)c(C)c(=O)n2c1` (stereo not shown) [Example 11-367, 5-fluoro-2-((1-(2-(isoindolin-2-yl)-3,7-dimethyl-4-oxo-4H-pyrido[1,2-a]pyrimidin-9-yl)ethyl)amino)benzoic acid]: more than 10 µM and 0.6 µM.
On the same counts, the results for `Cc1cc(C(C)Nc2ccccc2C(=O)O)c2nc(SC3CCOC3)cc(=O)n2c1` (stereo not shown) [Example 11-370, 2-((1-(7-methyl-4-oxo-2-((tetrahydrofuran-3-yl)thio)-4H-pyrido[1,2-a]pyrimidin-9-yl)ethyl)amino)benzoic acid] are more than 10 µM and more than 10 µM.
On the same counts, the results for `Cc1cc(C(C)Nc2ccccc2C(=O)O)c2nc(OC3CCOC3)cc(=O)n2c1` (stereo not shown) [Example 11-371, 2-((1-(7-methyl-4-oxo-2-((tetrahydrofuran-3-yl)oxy)-4H-pyrido[1,2-a]pyrimidin-9-yl)ethyl)amino)benzoic acid] are 3.04 µM and 9.07 µM.
In the case of `COc1cc(=O)n2cc(C)cc(C(C)Nc3ccccc3C(=O)O)c2n1` (stereo not shown) [Example 11-372, 2-((1-(2-methoxy-7-methyl-4-oxo-4H-pyrido[1,2-a]pyrimidin-9-yl)ethyl)amino)benzoic acid], the IC50 was more than 10 µM in assay [1] and more than 10 µM in assay [2] (Homo sapiens, T47D, 72 h).
Turning to `Cc1cc(C(C)Nc2ccccc2C(=O)O)c2nc(-c3cn[nH]c3)cc(=O)n2c1` (stereo not shown) [Example 11-373, 2-((1-(7-methyl-4-oxo-2-(1H-pyrazol-4-yl)-4H-pyrido[1,2-a]pyrimidin-9-yl)ethyl)amino)benzoic acid], the IC50 in assay [1] was more than 10 µM; in assay [2] (Homo sapiens, T47D, 72 h), 7.64 µM.
On to `Cc1cc([C@H](C)Nc2ccccc2C(=O)O)c2nc([C@H]3CCN(C)C(=O)C3)cc(=O)n2c1` [Example 11-374, 2-(((S)-1-(7-methyl-2-((S)-1-methyl-2-oxopiperidin-4-yl)-4-oxo-4H-pyrido[1,2-a]pyrimidin-9-yl)ethyl)amino)benzoic acid], for which the IC50 in assay [1] was more than 10 µM; in assay [2] (Homo sapiens, T47D, 72 h) it was more than 10 µM.
With `Cc1cc([C@H](C)Nc2ccccc2C(=O)O)c2nc([C@@H]3CCN(C)C(=O)C3)cc(=O)n2c1` [Example 11-375, 2-(((S)-1-(7-methyl-2-((R)-1-methyl-2-oxopiperidin-4-yl)-4-oxo-4H-pyrido[1,2-a]pyrimidin-9-yl)ethyl)amino)benzoic acid], the IC50 was more than 10 µM in assay [1] and more than 10 µM in assay [2] (Homo sapiens, T47D, 72 h).
